From patent US11053213B2, “Pharmaceutical compounds” (ALMAC DISCOVERY LIMITED, priority 2016, dated 2021)

biological target: USP19 (Homo sapiens (Human), UniProt O94966); assay: USP19 activity assay (fluorescence polarisation, Ubiquitin-Lys-TAMRA substrate); assay type: biochemical; settings: full-length USP19 2.5 nM, 30 min pre-incubation, Ub substrate 500 nM; average of at least two duplicate experiments
Method: Unless otherwise stated, all other reagents were purchased from Sigma. Enzymatic reactions were conducted in black flat bottom polystyrene 384-well plates (Nunc) and 30 μL total volume. […] Inhibitors were stored as 10 mM DMSO stocks in an inert environment (low humidity, dark, low oxygen, room temperature) using the Storage Pod System and serial dilutions were prepared in buffer just prior to the assay (from 200 μM to 2 pM, 8-18 data point curve). Following incubation at RT for 30 min, the enzymatic reactions were initiated by dispensing the Ub substrate (500 nM, 10 μL). FP was measured every 15 min over a period of 90 min (within the linear range of the assay) using a Synergy 4 plate reader (BioTek) exciting at 530 nm and measuring the amount of parallel and perpendicular light at 575 nm. The FP signal was subsequently normalised to the no compound control.

Sequence of USP19 (O94966 whole entry): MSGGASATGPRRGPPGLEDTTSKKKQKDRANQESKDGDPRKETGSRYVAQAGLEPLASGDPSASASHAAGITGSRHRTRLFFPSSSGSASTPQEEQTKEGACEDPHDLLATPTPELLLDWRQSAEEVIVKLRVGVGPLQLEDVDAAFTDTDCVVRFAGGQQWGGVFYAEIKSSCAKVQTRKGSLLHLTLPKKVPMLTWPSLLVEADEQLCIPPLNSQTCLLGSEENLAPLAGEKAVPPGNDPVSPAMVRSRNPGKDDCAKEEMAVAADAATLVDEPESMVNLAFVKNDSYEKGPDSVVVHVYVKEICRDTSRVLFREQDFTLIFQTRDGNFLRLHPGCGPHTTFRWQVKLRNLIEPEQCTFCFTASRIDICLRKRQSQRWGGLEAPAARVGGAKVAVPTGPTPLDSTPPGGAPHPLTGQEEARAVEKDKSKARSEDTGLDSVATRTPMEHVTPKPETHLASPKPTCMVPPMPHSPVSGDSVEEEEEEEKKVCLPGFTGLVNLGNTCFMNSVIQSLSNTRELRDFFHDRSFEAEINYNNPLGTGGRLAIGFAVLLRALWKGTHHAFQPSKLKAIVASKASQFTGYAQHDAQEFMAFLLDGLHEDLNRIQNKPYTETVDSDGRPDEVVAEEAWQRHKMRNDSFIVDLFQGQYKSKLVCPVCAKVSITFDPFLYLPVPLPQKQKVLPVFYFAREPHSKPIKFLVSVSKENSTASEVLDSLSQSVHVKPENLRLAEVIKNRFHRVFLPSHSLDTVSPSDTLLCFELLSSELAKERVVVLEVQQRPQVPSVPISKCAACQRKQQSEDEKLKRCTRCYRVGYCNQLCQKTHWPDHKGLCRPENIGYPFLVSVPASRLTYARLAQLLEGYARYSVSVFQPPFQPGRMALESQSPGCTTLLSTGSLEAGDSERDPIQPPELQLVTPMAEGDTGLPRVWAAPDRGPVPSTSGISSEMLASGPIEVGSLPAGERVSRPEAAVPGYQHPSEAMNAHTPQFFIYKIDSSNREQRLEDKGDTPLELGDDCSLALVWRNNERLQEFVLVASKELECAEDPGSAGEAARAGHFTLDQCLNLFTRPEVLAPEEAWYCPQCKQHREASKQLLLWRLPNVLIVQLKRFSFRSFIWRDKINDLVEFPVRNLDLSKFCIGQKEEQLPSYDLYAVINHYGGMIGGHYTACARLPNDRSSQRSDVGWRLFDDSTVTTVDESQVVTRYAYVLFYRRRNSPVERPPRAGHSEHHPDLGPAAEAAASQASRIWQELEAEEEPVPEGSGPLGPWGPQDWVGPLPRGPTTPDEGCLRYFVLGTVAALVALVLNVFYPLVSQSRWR

SMILES	IC50 [µM]
C=C(C)c1cc(=O)n(CC2(O)CCN(C(=O)C[C@@H](C)c3ccccc3)CC2)cc1-c1ccccc1 [Example 12, (R)-1-((4-Hydroxy-1-(3-phenylbutanoyl)piperidin-4-yl)methyl)-5-phenyl-4-(prop-1-en-2-yl)pyridine-2(1H)-one]	5 to 50
CCOC(=O)c1cn(CC2(O)CCN(C(=O)C[C@@H](C)c3ccccc3)CC2)c(=O)cc1-c1ccccc1 [Example 13, (R)-Ethyl 1-((4-hydroxy-1-(3-phenylbutanoyl)piperidin-4-yl)methyl)-6-oxo-4-phenyl-1,6-dihydropyridine-3-carboxylate]	50 to 250
C[C@H](CC(=O)N1CCC(O)(Cn2cnc(-c3cccc4cnn(C)c34)cc2=O)CC1)c1ccccc1 [Example 16, (R)-3-((4-Hydroxy-1-(3-phenylbutanoyl)piperidin-4-yl)methyl)-6-(1-methyl-1H-indazol-7-yl)pyrimidin-4(3H)-one]	5 to 50
COc1ccccc1-c1cc(=O)n(CC2(O)CCN(C(=O)C[C@@H](C)c3ccccc3)CC2)cn1 [Example 17, (R)-3-((4-Hydroxy-1-(3-phenylbutanoyl)piperidin-4-yl)methyl)-6-(2-methoxyphenyl)pyrimidin-4(3H)-one]	5 to 50
Cc1nc(-c2ccccc2)cc(=O)n1CC1(O)CCN(C(=O)C[C@@H](C)c2ccccc2)CC1 [Example 18, (R)-3-((4-Hydroxy-1-(3-phenylbutanoyl)piperidin-4-yl)methyl)-2-methyl-6-phenylpyrimidin-4(3H)-one]	5 to 50
C[C@H](CC(=O)N1CCC(O)(Cn2nc(-c3ccccc3)c(-c3ccccc3)cc2=O)CC1)c1ccccc1 [Example 19, (R)-2-((4-Hydroxy-1-(3-phenylbutanoyl)piperidin-4-yl)methyl)-5,6-diphenylpyridazin-3(2H)-one]	5 to 50
C[C@H](CC(=O)N1CCC(O)(Cn2cnc(-c3cccc4ccccc34)cc2=O)CC1)c1ccccc1 [Example 20, (R)-3-((4-Hydroxy-1-(3-phenylbutanoyl)piperidin-4-yl)methyl)-6-(naphthalen-1-yl)pyrimidin-4(3H)-one]	5 to 50
C[C@H](CC(=O)N1CCC(O)(Cn2cnc(-c3cccc(C4OCCO4)c3)cc2=O)CC1)c1ccccc1 [Example 21, (R)-6-(3-(1,3-Dioxolan-2-yl)phenyl)-3-((4-hydroxy-1-(3-phenylbutanoyl)piperidin-4-yl)methyl)pyrimidin-4(3H)-one]	5 to 50
C[C@H](CC(=O)N1CCC(O)(Cn2cnc(-c3ccsc3)cc2=O)CC1)c1ccccc1 [Example 22, (R)-3-((4-Hydroxy-1-(3-phenylbutanoyl)piperidin-4-yl)methyl)-6-(thiophen-3-yl)pyrimidin-4(3H)-one]	5 to 50
CC(C)N(C)C(=O)c1cn(CC2(O)CCN(C(=O)C3(C)CCCC3)CC2)c(=O)cc1-c1ccccc1F [Example 23, 4-(2-Fluorophenyl)-1-((4-hydroxy-1-(1-methylcyclopentane-1-carbonyl)piperidin-4-yl)methyl)-N-isopropyl-N-methyl-6-oxo-1,6-dihydropyridine-3-carboxamide]	5 to 50
CCC1(C(=O)N2CCC(O)(Cn3cnc(-c4ccccc4F)cc3=O)CC2)CCCCC1 [Example 24, 3-((1-(1-Ethylcyclohexane-1-carbonyl)-4-hydroxypiperidin-4-yl)methyl)-6-(2-fluorophenyl)pyrimidin-4(3H)-one]	5 to 50
CC(C)C(CC1CCCCC1)C(=O)N1CCC(O)(Cn2cnc(-c3ccccc3F)cc2=O)C(C)(C)C1 (stereo not shown) [Example 25, 3-((1-(2-(Cyclohexylmethyl)-3-methylbutanoyl)-4-hydroxy-3,3-dimethylpiperidin-4-yl)methyl)-6-(2-fluorophenyl)pyrimidin-4(3H)-one]	0.5 to 5
C[C@H](CC(=O)N1CCC(O)(Cn2cnc(-c3ccco3)cc2=O)CC1)c1ccccc1 [Example 26, (R)-6-(Furan-2-yl)-3-((4-hydroxy-1-(3-phenylbutanoyl)piperidin-4-yl)methyl)pyrimidin-4(3H)-one]	50 to 250
C[C@H](CC(=O)N1CCC(O)(Cn2ccc(-c3ccccc3)cc2=O)CC1)c1ccccc1 [Example 27, (R)-1-((4-Hydroxy-1-(3-phenylbutanoyl)piperidin-4-yl)methyl)-4-phenylpyridin-2(1H)-one]	50 to 250
C[C@H](CC(=O)N1CCC(O)(Cn2cnc(C3=CCCCC3)cc2=O)CC1)c1ccccc1 [Example 28, (R)-6-(Cyclohex-1-en-1-yl)-3-((4-hydroxy-1-(3-phenylbutanoyl)piperidin-4-yl)methyl)pyrimidin-4(3H)-one]	50 to 250
C=C(C)c1cc(=O)n(CC2(O)CCN(C(=O)C[C@@H](C)c3ccccc3)CC2)cn1 [Example 29, (R)-3-((4-Hydroxy-1-(3-phenylbutanoyl)piperidin-4-yl)methyl)-6-(prop-1-en-2-yl)pyrimidin-4(3H)-one]	50 to 250

SMILES	IC50 [µM]
C[C@H](CC(=O)N1CCC(O)(Cn2cnc(-c3ccccc3OC(F)(F)F)cc2=O)CC1)c1ccccc1 [Example 30, (R)-3-((4-Hydroxy-1-(3-phenylbutanoyl)piperidin-4-yl)methyl)-6-(2-(trifluoromethoxy)phenyl)pyrimidin-4(3H)-one]	50 to 250
C[C@H](CC1CCCCC1)C(=O)N1C[C@H]2CC[C@@H](C1)C2(O)Cn1cnc(-c2ccccc2F)cc1=O (stereo partly drawn) [Example 31, 3-(((1R,5S)-3-((R)-3-Cyclohexyl-2-methylpropanoyl)-8-hydroxy-3-azabicyclo[3.2.1]octan-8-yl)methyl)-6-(2-fluorophenyl)pyrimidin-4(3H)-one]	0.5 to 5
C[C@H](CC(=O)N1CCC(O)(Cn2cnc(-c3ccccc3F)cc2=O)CC1)c1ccccc1 [Example 32, (R)-6-(2-Fluorophenyl)-3-((4-hydroxy-1-(3-phenylbutanoyl)piperidin-4-yl)methyl)pyrimidin-4(3H)-one]	5 to 50
C[C@H](CC(=O)N1CCC(O)(Cc2cnc(-c3ccccc3)[nH]c2=O)CC1)c1ccccc1 [Example 33, (R)-5-((4-Hydroxy-1-(3-phenylbutanoyl)piperidin-4-yl)methyl)-2-phenylpyrimidin-4(3H)-one]	5 to 50
Cc1nc(-c2ccccc2)cc(=O)n1CC1(O)CCN(C(=O)CCc2ccccc2)CC1 [Example 34, 3-((4-Hydroxy-1-(3-phenylpropanoyl)piperidin-4-yl)methyl)-2-methyl-6-phenylpyrimidin-4(3H)-one]	50 to 250
CC(C)CNc1cc(=O)n(CC2(O)CCN(C(=O)C[C@@H](C)c3ccccc3)CC2)cn1 [Example 35, (R)-3-((4-Hydroxy-1-(3-phenylbutanoyl)piperidin-4-yl)methyl)-6-(isobutylamino)pyrimidin-4(3H)-one]	50 to 250
C[C@H](CC1CCCCC1)C(=O)N1CCC(O)(Cn2cc(C(=O)N3CCCCC3)c(-c3ccccc3)cc2=O)CC1 [Example 36, (R)-1-((1-(3-Cyclohexyl-2-methylpropanoyl)-4-hydroxypiperidin-4-yl)methyl)-4-phenyl-5-(piperidine-1-carbonyl)pyridin-2(1H)-one]	0.5 to 5
C[C@H](CC(=O)N1CCC(O)(Cn2ncc(-c3ccccc3)cc2=O)CC1)c1ccccc1 [Example 37, (R)-2-((4-Hydroxy-1-(3-phenylbutanoyl)piperidin-4-yl)methyl)-5-phenylpyridazin-3(2H)-one]	50 to 250
CC(C)N(C)C(=O)c1cn(CC2(O)CCN(C(=O)C[C@@H](C)c3ccccc3)CC2)c(=O)cc1-c1ccccc1C#N [Example 38, (R)-4-(2-Cyanophenyl)-1-((4-hydroxy-1-(3-phenylbutanoyl)piperidin-4-yl)methyl)-N-isopropyl-N-methyl-6-oxo-1,6-dihydropyridine-3-carboxamide]	50 to 250
C[C@H](CC1CCCCC1)C(=O)N1CCC(O)(Cn2cnc(-c3ccccc3F)cc2=O)CC1 [Example 39, (R)-3-((1-(3-Cyclohexyl-2-methylpropanoyl)-4-hydroxypiperidin-4-yl)methyl)-6-(2-fluorophenyl)pyrimidin-4(3H)-one]	5 to 50
CCC(CC1CCCCC1)C(=O)N1CCC(O)(Cn2cnc(-c3ccccc3F)cc2=O)CC1 (stereo not shown) [Example 40, 3-((1-(2-(Cyclohexylmethyl)butanoyl)-4-hydroxypiperidin-4-yl)methyl)-6-(2-fluorophenyl)pyrimidin-4(3H)-one]	5 to 50
CC1(C(=O)N2CCC(O)(Cn3cnc(-c4ccccc4F)cc3=O)CC2)CCCCC1 [Example 42, 6-(2-Fluorophenyl)-3-((4-hydroxy-1-(1-methylcyclohexanecarbonyl)piperidin-4-yl)methyl)pyrimidin-4(3H)-one]	5 to 50
C[C@H](CC(=O)N1CCC(O)(Cn2cc(C=O)c(-c3ccccc3)cc2=O)CC1)c1ccccc1 [Example 45, (R)-1-((4-Hydroxy-1-(3-phenylbutanoyl)piperidin-4-yl)methyl)-6-oxo-4-phenyl-1,6-dihydropyridine-3-carbaldehyde]	50 to 250
C[C@H](CC(=O)N1CCC(O)(Cn2cc(CN(C)C)c(-c3ccccc3)cc2=O)CC1)c1ccccc1 [Example 46, (R)-5-((Dimethylamino)methyl)-1-((4-hydroxy-1-(3-phenylbutanoyl)piperidin-4-yl)methyl)-4-phenylpyridin-2(1H)-one]	50 to 250
O=C(C[C@H](c1ccccc1)C(F)(F)F)N1CCC(O)(Cn2cnc(-c3ccccc3F)cc2=O)CC1 [Example 48, (R)-6-(2-Fluorophenyl)-3-((4-hydroxy-1-(4,4,4-trifluoro-3-phenylbutanoyl)piperidin-4-yl)methyl)pyrimidin-4(3H)-one]	50 to 250
